In paper PMC5000588, “A Female-Biased Odorant Receptor from Apolygus lucorum (Meyer-Dür) Tuned to Some Plant Odors” (International Journal of Molecular Sciences, 2016):

Assays:
[1] = molecular target: T1, AlucOR46/Orco (Apolygus lucorum, UniProt A0A1Q1NIJ3); test: two-electrode voltage clamp, Xenopus oocytes, inward current dose-response; type: cell-based
T1 construct: gene OR39; full-length ORF of AlucOR46 (1185 bp, 394 residues) in pT7Ts, cRNA co-injected with AlucOrco cRNA into Xenopus oocytes; OR/Orco heteromeric channel; with Odorant receptor coreceptor
T1 sequence (A0A1Q1NIJ3 1-394): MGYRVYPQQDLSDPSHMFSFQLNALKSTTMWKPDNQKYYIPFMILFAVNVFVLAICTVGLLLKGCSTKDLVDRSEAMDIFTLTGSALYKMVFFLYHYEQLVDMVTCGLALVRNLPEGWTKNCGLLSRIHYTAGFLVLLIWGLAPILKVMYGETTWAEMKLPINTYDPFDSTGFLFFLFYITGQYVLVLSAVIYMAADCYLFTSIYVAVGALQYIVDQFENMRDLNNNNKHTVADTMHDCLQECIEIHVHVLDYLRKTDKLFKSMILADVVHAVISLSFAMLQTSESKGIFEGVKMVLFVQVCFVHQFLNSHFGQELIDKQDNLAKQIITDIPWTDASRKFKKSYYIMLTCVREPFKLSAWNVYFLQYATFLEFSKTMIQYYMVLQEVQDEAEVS
T1 sequence (V9TQK7 1-471 partner): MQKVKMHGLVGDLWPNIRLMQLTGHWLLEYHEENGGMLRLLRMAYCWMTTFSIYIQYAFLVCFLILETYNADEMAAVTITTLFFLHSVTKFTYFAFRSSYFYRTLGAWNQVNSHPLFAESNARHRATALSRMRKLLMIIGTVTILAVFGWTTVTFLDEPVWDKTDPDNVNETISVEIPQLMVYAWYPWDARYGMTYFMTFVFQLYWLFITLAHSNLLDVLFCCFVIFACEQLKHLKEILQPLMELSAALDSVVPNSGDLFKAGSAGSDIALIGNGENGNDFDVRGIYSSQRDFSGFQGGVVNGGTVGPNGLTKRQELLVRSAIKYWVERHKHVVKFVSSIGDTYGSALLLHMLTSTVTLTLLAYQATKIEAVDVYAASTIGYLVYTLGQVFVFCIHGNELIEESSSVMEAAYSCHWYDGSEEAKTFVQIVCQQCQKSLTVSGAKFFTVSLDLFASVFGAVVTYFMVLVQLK
Text: two-electrode voltage clamp, Xenopus oocytes, inward current dose-response on AlucOR46/Orco

[2] = molecular target: T1, AlucOR46/Orco; test: two-electrode voltage clamp, Xenopus oocytes, inward current at a single concentration; type: cell-based; conditions: agonist; 10^−4 M odorant; coexpressed with AlucOrco; 1× Ringer's buffer pH 7.6

CCCCCCCO [1-Heptanol]
EC50 [1]: 13.8 µM

CC1(C)[C@H]2CC=C(CO)[C@@H]1C2 [(1R)-(−)-Myrtenol]
EC50 [1]: 74.4 µM

CCC/C=C/C=O [(E)-2-Hexenal]
EC50 [1]: 37.1 µM

CC/C=C/CCO [(E)-3-Hexenol]
EC50 [1]: 25.3 µM

C=C(C)[C@H]1CC=C(C)CC1 [(R)-(+)-Limonene]
inward current response at 10^-4 M [2]: Only six compounds: (S)-(−)-Limonene, (R)-(+)-Limonene

C=C(C)[C@@H]1CC=C(C)CC1 [(S)-(−)-Limonene]
inward current response at 10^-4 M [2]: Only six compounds: (S)-(−)-Limonene, (R)-(+)-Limonene
